Assay [1] deals with HER2 kinase (Homo sapiens (Human), UniProt P04626). Nature of the assay: Inhibition of HER2 kinase activity (ULight-labeled PolyGT substrate). Type of assay: biochemical. The settings on record: HER2 kinase 10 nM, ATP 10 μM, 2 hours. In outline:
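HER2 kinase at 10 nM with 10 μM ATP and 100 nM ULight-PolyGT, 5 min enzyme–compound preincubation, then 2 h reaction at room temperature in the dark. Compounds at 11 3-fold concentrations, 2.5 μM top to 0.042 nM, 1% DMSO, duplicates. TR-FRET 665/615 ratio; IC50 from inhibition versus DMSO and no-compound controls.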

Assay [2] deals with BT474 cells. Nature of the assay: Inhibition of cell proliferation, BT474 (CCK-8, 72 h). The assay is classed as cell-based. The method, boiled down: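 BT474 and HCC827 seeded at 10,000 and 3000 cells/well respectively, cultured overnight, then exposed to 10-point 3-fold compound dilutions (top stock 10 mM; 0.25% DMSO final) for 72 h. Viability by CCK-8, OD450; survival normalised to untreated and cell-free blanks, IC50 from curve fit.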

For assay [3], the system named is HCC827 cells. Nature of the assay: Inhibition of cell proliferation, HCC827 (CCK-8, 72 h). Type of assay: cell-based. The settings on record: 72 h incubation. Here is the method: The assay for the inhibition of cell proliferation by small molecular compounds was carried out using the method as follows:
1. 600 μL pancreatin was added to a T75 cell culture flask, which was digested in a 37° C. incubator for about 1 min before 5 mL of DMEM complete culture solution was added, blew evenly, transferred to a 15 mL centrifuge tube, and centrifuged at 1000 rpm for 4 min;
2. The supernatant was removed and 5 mL DMEM complete culture solution was added, blew evenly, and 10 μL cell suspension was taken and mixed with 10 μL 0.4% Trypan Blue, and counted using a cell counter;
3. BT474 and HCC827 cell lines were seeded in 96-well plates at a cell density of 10,000 and 3000 cells/well/80 μL, respectively, and cultured overnight. Only sterile water was added to the 36 wells on the periphery of the 96-well plate without adding cells, and only the 60 wells in the center of the 96-well plate were used for cell assays and controls;
4. Dilution of compounds: the compounds were diluted with a 3-fold dilution to make 10 concentrations in total with an initial concentration of 10 mM;
5. 20 μL of different compounds with different concentrations were added to each well, and 20 μL of complete culture solution was added to the remaining wells. The final concentration of DMSO in each well is 0.25%;
6. After 72 h of incubation, 10 μL CCK-8 reagent was added to each well, and incubated at 37° C. for 1-2 h; and the OD value was read at 450 nm;
7. Cell survival rate (%)=[(As−Ab)/(Ac−Ab)]*100%
As: Assay well (medium containing cell, CCK-8, compound)
Ac: Control well (medium containing cell, CCK-8)
Ab: Blank well (CCK-8, medium without cell and compound)
8. The value was imported into Graphpad Prism5 software for the calculation of IC50s (compound concentration at which 50% maximum survival rate is observed).

Assay [4] addresses EGFR kinase (Homo sapiens (Human), UniProt P00533). Nature of the assay: Inhibition of EGFR kinase activity (ULight-labeled JAK-1 (Tyr1023) peptide substrate). Type of assay: biochemical. The settings on record: EGFR kinase 0.35 nM, ATP 150 μM, 2 hours. The method, boiled down:
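TR-FRET kinase assay: 0.35 nM EGFR, 150 μM ATP, 100 nM substrate, 2 h at room temperature in the dark after 5 min enzyme-compound preincubation, 1% DMSO. Compounds tested as 11-point 3-fold series, 2.5 μM to 0.042 nM final, duplicate; IC50 from 665/615 nm ratio-based inhibition.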

Where [5] appears, read: Homo sapiens, BT-474, 72 h incubation.

Sequence of EGFR kinase (P00533 25-1210): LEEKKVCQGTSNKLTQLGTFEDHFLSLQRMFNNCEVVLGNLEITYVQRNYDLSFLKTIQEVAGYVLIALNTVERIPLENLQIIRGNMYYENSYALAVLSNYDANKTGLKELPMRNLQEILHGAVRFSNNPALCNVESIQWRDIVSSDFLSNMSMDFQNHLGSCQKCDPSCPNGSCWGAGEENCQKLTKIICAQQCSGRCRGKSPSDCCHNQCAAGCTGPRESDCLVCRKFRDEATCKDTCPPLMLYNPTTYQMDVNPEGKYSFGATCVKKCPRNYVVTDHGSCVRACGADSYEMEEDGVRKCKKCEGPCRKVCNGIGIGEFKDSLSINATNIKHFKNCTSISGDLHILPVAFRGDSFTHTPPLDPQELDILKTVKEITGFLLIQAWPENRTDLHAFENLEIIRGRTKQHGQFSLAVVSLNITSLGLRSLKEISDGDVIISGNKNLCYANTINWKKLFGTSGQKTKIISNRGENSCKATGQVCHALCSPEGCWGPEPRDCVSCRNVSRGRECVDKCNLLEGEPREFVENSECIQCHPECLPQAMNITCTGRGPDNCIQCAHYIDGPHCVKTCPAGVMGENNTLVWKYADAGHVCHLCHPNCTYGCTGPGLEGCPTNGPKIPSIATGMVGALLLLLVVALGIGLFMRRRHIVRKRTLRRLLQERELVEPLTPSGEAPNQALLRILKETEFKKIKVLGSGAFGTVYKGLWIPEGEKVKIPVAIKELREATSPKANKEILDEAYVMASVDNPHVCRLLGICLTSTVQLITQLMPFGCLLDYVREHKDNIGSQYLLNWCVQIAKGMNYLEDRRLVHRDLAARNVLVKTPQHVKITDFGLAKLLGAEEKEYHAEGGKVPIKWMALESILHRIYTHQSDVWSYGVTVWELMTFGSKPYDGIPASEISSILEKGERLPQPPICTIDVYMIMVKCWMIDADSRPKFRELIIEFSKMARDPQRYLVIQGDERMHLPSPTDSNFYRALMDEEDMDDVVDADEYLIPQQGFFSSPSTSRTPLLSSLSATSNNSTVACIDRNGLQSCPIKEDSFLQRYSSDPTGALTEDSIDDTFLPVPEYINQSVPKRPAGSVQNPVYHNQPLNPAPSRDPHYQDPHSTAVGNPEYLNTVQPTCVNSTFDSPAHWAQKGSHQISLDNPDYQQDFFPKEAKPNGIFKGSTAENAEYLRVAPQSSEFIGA
Sequence of HER2 kinase (P04626 23-1255): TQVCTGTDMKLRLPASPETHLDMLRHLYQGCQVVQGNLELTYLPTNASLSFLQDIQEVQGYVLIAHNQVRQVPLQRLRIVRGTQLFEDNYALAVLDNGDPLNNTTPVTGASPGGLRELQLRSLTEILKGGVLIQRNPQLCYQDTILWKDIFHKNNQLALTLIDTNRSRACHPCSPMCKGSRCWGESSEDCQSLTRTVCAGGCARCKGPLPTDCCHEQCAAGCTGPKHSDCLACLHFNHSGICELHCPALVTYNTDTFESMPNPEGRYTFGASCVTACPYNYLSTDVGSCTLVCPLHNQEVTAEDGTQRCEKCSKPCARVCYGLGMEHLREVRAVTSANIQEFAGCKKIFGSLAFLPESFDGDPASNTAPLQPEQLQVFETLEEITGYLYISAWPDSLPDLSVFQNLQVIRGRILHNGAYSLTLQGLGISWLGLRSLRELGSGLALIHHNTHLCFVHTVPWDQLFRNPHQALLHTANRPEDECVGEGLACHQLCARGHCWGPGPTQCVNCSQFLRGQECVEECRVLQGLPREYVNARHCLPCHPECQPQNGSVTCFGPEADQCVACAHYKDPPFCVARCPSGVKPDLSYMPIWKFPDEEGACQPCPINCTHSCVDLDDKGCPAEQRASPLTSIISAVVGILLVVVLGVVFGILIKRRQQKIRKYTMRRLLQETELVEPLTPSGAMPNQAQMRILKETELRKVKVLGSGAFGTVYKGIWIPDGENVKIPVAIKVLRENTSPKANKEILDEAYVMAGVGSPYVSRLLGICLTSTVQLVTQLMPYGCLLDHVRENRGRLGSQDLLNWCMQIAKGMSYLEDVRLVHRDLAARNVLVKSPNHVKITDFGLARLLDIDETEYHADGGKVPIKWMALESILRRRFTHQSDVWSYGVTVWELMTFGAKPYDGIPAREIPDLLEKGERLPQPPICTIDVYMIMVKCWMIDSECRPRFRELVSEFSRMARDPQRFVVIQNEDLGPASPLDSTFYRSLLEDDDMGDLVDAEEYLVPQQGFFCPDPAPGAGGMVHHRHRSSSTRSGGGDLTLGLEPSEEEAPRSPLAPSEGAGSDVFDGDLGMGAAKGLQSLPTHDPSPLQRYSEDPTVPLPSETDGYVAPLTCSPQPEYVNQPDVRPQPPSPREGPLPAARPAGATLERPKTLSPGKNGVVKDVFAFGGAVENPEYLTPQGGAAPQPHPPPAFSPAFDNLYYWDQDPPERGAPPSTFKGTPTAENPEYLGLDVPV

Consider `CN(C)C/C=C/C(=O)N1CCOc2c1ccc1ncnc(Nc3ccc(Oc4ccccc4)cc3)c21` [Example 44, (E)-4-(dimethylamino)-1-(10-((4-phenoxyphenyl)amino)-2,3-dihydro-4H-[1,4]oxazino[2,3-f]quinazolin-4-yl)but-2-en-1-one], for which the IC50 in assay [1] is at most 50 nM; in assay [2] (setting [5]), at most 50 nM; in assay [3] (Homo sapiens) it was 500 to 5000 nM; in assay [4], at most 50 nM.
As to `CN(C)C/C=C/C(=O)N1CCOc2c1ccc1ncnc(Nc3ccc(OCc4ccccn4)c(Cl)c3)c21` [Example 46, (E)-1-(10-((3-chloro-4-(pyridin-2-ylmethoxy)phenyl)amino)-2,3-dihydro-4H-[1,4]oxazino[2,3-f]quinazolin-4-yl)-4-(dimethylamino)but-2-en-1-one], the half-inhibitory concentration (IC50) was at most 50 nM in assay [1], at most 50 nM in assay [2] (setting [5]), 50 to 500 nM in assay [3] (Homo sapiens) and at most 50 nM in assay [4].
As for `Cc1cccc(Oc2ccc(Nc3ncnc4ccc5c(c34)OCCN5C(=O)/C=C/CN(C)C)cc2)c1` [Example 47, (E)-4-(dimethylamino)-1-(10-((4-(m-tolyloxy)phenyl)amino)-2,3-dihydro-4H-[1,4]oxazino[2,3-f]quinazolin-4-yl)but-2-en-1-one], the concentration for half-maximal inhibition (IC50) in assay [1] is at most 50 nM; in assay [2] (setting [5]), at most 50 nM; in assay [3] (Homo sapiens), 500 to 5000 nM; in assay [4], at most 50 nM.
For the molecule `CN(C)C/C=C/C(=O)N1CCOc2c1ccc1ncnc(Nc3ccc(Oc4cccc(Cl)c4)cc3)c21` [Example 48, (E)-4-(dimethylamino)-1-(10-((4-(3-chlorophenoxy)phenyl)amino)-2,3-dihydro-4H-[1,4]oxazino[2,3-f]quinazolin-4-yl)but-2-en-1-one], the IC50 in assay [1] is at most 50 nM; in assay [2] (setting [5]) it was 50 to 500 nM; in assay [3] (Homo sapiens), 500 to 5000 nM; in assay [4], at most 50 nM.
For `CN(C)C/C=C/C(=O)N1CCOc2c1ccc1ncnc(Nc3ccc(Oc4cccc(F)c4)cc3)c21` [Example 49, (E)-4-(dimethylamino)-1-(10-((4-(3-fluorophenoxy)phenyl)amino)-2,3-dihydro-4H-[1,4]oxazino[2,3-f]quinazolin-4-yl)but-2-en-1-one], the IC50 is at most 50 nM in assay [1], at most 50 nM in assay [2] (setting [5]), 50 to 500 nM in assay [3] (Homo sapiens) and at most 50 nM in assay [4].
On to `CN(C)C/C=C/C(=O)N1CCOc2c1ccc1ncnc(Nc3ccc(Oc4ccccc4F)cc3)c21` [Example 50, (E)-4-(dimethylamino)-1-(10-((4-(2-fluorophenoxy)phenyl)amino)-2,3-dihydro-4H-[1,4]oxazino[2,3-f]quinazolin-4-yl)but-2-en-1-one], for which the IC50 in assay [1] is at most 50 nM; in assay [2] (setting [5]), at most 50 nM; in assay [3] (Homo sapiens), 500 to 5000 nM; in assay [4], at most 50 nM.
Regarding `CN(C)C/C=C/C(=O)N1CCOc2c1ccc1ncnc(Nc3ccc(Oc4ccc(F)cc4)cc3)c21` [Example 51, (E)-4-(dimethylamino)-1-(10-((4-(4-fluorophenoxy)phenyl)amino)-2,3-dihydro-4H-[1,4]oxazino[2,3-f]quinazolin-4-yl)but-2-en-1-one], the IC50 was at most 50 nM in assay [1], at most 50 nM in assay [2] (setting [5]), 500 to 5000 nM in assay [3] (Homo sapiens) and at most 50 nM in assay [4].
For the molecule `COc1ccccc1Oc1ccc(Nc2ncnc3ccc4c(c23)OCCN4C(=O)/C=C/CN(C)C)cc1` [Example 53, (E)-4-(dimethylamino)-1-(10-((4-(2-methoxyphenoxy)phenyl)amino)-2,3-dihydro-4H-[1,4]oxazino[2,3-f]quinazolin-4-yl)but-2-en-1-one], the concentration for half-maximal inhibition (IC50) in assay [1] is at most 50 nM; in assay [2] (setting [5]) it was at most 50 nM; in assay [3] (Homo sapiens), 500 to 5000 nM; in assay [4], at most 50 nM.
On to `CN(C)C/C=C/C(=O)N1CCOc2c1ccc1ncnc(Nc3ccc(Oc4cccnc4)cc3)c21` [Example 54], for which the IC50 in assay [1] was at most 50 nM; in assay [2] (setting [5]), at most 50 nM; in assay [3] (Homo sapiens) it was 500 to 5000 nM; in assay [4], 500 to 5000 nM.
Turning to `COc1cccc(Oc2ccc(Nc3ncnc4ccc5c(c34)OCCN5C(=O)/C=C/CN(C)C)cc2)c1` [Example 56, (E)-4-(dimethylamino)-1-(10-((4-(3-methoxyphenoxy)phenyl)amino)-2,3-dihydro-4H-[1,4]oxazino[2,3-f]quinazolin-4-yl)but-2-en-1-one], the IC50 in assay [1] was at most 50 nM; in assay [2] (setting [5]) it was at most 50 nM; in assay [3] (Homo sapiens), 500 to 5000 nM; in assay [4], at most 50 nM.
`CN(C)C/C=C/C(=O)N1CCOc2c1ccc1ncnc(Nc3ccc(Oc4nccs4)cc3)c21` [Example 57, (E)-4-(dimethylamino)-1-(10-((4-(thiazol-2-yloxy)phenyl)amino)-2,3-dihydro-4H-[1,4]oxazino[2,3-f]quinazolin-4-yl)but-2-en-1-one]: the IC50 in assay [1] was at most 50 nM; in assay [2] (setting [5]) it was at most 50 nM; in assay [3] (Homo sapiens) it was 500 to 5000 nM; in assay [4], 50 to 500 nM.
In the case of `CN(C)C/C=C/C(=O)N1CCOc2c1ccc1ncnc(Nc3ccc(Oc4ccccc4)c(Cl)c3)c21` [Example 59, (E)-4-(dimethylamino)-1-(10-((3-chloro-4-phenoxyphenyl)amino)-2,3-dihydro-4H-[1,4]oxazino[2,3-f]quinazolin-4-yl)but-2-en-1-one], the IC50 in assay [1] was at most 50 nM; in assay [2] (setting [5]), at most 50 nM; in assay [3] (Homo sapiens), 500 to 5000 nM; in assay [4] it was at most 50 nM.
For `CN(C)C/C=C/C(=O)N1CCOc2c1ccc1ncnc(Nc3ccc(OCc4ccc(F)cc4)cc3)c21` [Example 60, (E)-4-(dimethylamino)-1-(10-((4-((4-fluorobenzyl)oxy)phenyl)amino)-2,3-dihydro-4H-[1,4]oxazino[2,3-f]quinazolin-4-yl)but-2-en-1-one], the half-inhibitory concentration (IC50) in assay [1] is at most 50 nM; in assay [2] (setting [5]) it was at most 50 nM; in assay [3] (Homo sapiens), 500 to 5000 nM; in assay [4] it was at most 50 nM.
On to `CN(C)C/C=C/C(=O)N1CCOc2c1ccc1ncnc(Nc3ccc(OCc4cccc(F)c4)cc3)c21` [Example 61, (E)-4-(dimethylamino)-1-(10-((4-((3-fluorobenzyl)oxy)phenyl)amino)-2,3-dihydro-4H-[1,4]oxazino[2,3-f]quinazolin-4-yl)but-2-en-1-one], for which the IC50 is at most 50 nM in assay [1], at most 50 nM in assay [2] (setting [5]), over 5000 nM in assay [3] (Homo sapiens) and at most 50 nM in assay [4].
Take `CN(C)C/C=C/C(=O)N1CCOc2c1ccc1ncnc(Nc3ccc(OCc4cccc(C(F)(F)F)c4)cc3)c21` [Example 62]: the half-inhibitory concentration (IC50) in assay [1] is at most 50 nM; in assay [2] (72 h incubation), 50 to 500 nM; in assay [3], over 5000 nM; in assay [4], at most 50 nM.
Consider `CN(C)C/C=C/C(=O)N1CCOc2c1ccc1ncnc(Nc3ccc(OCc4ccccn4)cc3)c21` [Example 63, (E)-4-(dimethylamino)-1-(10-((4-(pyridin-2-ylmethoxy)phenyl)amino)-2,3-dihydro-4H-[1,4]oxazino[2,3-f]quinazolin-4-yl)but-2-en-1-one], for which the IC50 in assay [1] was at most 50 nM; in assay [2] (setting [5]), at most 50 nM; in assay [3] (Homo sapiens), 500 to 5000 nM; in assay [4] it was 50 to 500 nM.
On to `CN(C)C/C=C/C(=O)N1CCOc2c1ccc1ncnc(Nc3ccc(OCc4cccs4)cc3)c21` [Example 64, (E)-4-(dimethylamino)-1-(10-((4-(thiophen-2-ylmethoxy)phenyl)amino)-2,3-dihydro-4H-[1,4]oxazino[2,3-f]quinazolin-4-yl)but-2-en-1-one], for which the IC50 was at most 50 nM in assay [1], at most 50 nM in assay [2] (setting [5]), 50 to 500 nM in assay [3] (Homo sapiens) and 50 to 500 nM in assay [4].
As to `CN(C)C/C=C/C(=O)N1CCOc2c1ccc1ncnc(Nc3ccc(OCc4nccs4)cc3)c21` [Example 65, (E)-4-(dimethylamino)-1-(10-((4-(thiazol-2-ylmethoxy)phenyl)amino)-2,3-dihydro-4H-[1,4]oxazino[2,3-f]quinazolin-4-yl)but-2-en-1-one], the IC50 in assay [1] was at most 50 nM; in assay [2] (setting [5]) it was at most 50 nM; in assay [3] (Homo sapiens), 50 to 500 nM; in assay [4], at most 50 nM.

For orientation: IC50 means the point on the concentration scale where inhibition reaches its midpoint. Lower therefore signals greater potency.

These data come from patent publication US11548900B2, “Oxazino-quinazoline and oxazino-quinoline type compound, preparation method and uses thereof” (BEIJING SCITECH-MQ PHARMACEUTICALS LIMITED, priority 2018, dated 2023).
